In PMC11310081, “Deep-learning-enabled antibiotic discovery through molecular de-extinction” (Nature Biomedical Engineering, 2024):
Converted amounts (≈) assume the structure as drawn. Peptide text beside a SMILES is read from it.

Tests used:
[1] = tested on: A. baumannii ATCC 19606; format: cell-based, Acinetobacter baumannii; conditions: ATCC 19606, 20 h
Description: (§1) The following Gram-negative bacteria were used in our study: A. baumannii ATCC 19606, E. coli ATCC 11775, E. coli AIC221 (E. coli MG1655 phnE_2::FRT), E. coli AIC222 (E. coli MG1655 pmrA53 phnE_2::FRT (colistin resistant)), K. pneumoniae ATCC 13883, P. aeruginosa PAO1 and P. aeruginosa PA14. The following Gram-positive bacteria were also used in our study: S. aureus ATCC 12600, S. aureus ATCC BAA-1556 (methicillin-resistant strain), E. faecalis ATCC 700802 (vancomycin-resistant strain) and E. faecium ATCC 700221 (vancomycin-resistant strain). Bacteria were grown from frozen stocks and plated on Luria–Bertani (LB) or Pseudomonas isolation agar plates (P. aeruginosa strains) and incubated overnight at 37 °C. After the incubation period, a single colony was transferred to 5 ml of LB medium, and cultures were incubated overnight (16 h) at 37 °C. The following day, an inoculum was prepared by diluting the overnight cultures 1:100 in 5 ml of the respective media and incubating them at 37 °C until bacteria reached logarithmic phase (OD600 = 0.3–0.5).
(§2) The in vitro antimicrobial activity of the peptides was assessed by using the broth microdilution assay. […] Aqueous solutions of the peptides were added to the plate at concentrations ranging from 1 to 64 μmol l^−1. […] The optical density of the plates was measured at 600 nm using a spectrophotometer. All assays were done as three biological replicates.

[2] = tested on: E. faecium ATCC 700221 (vancomycin-resistant strain); format: cell-based, Enterococcus faecium; conditions: ATCC 700221, 20 h
Description: as §1, §2

[3] = tested on: HEK293T cells; conditions: 24 h
Protocol: HEK293T cells were obtained from the American Type Culture Collection (CRL-3216). The cells were cultured in high-glucose Dulbecco’s modified Eagle’s medium supplemented with 1% penicillin and streptomycin (antibiotics) and 10% fetal bovine serum and grown at 37 °C in a humidified atmosphere containing 5% CO2.
One day before the experiment, an aliquot of 100 μl of the cells at 50,000 cells per ml was seeded into each well of the cell-treated 96-well plates used in the experiment (that is, 5,000 cells per well). […] After the incubation period, we performed the 3-(4,5-dimethylthiazol-2-yl)-2,5-diphenyltetrazolium bromide tetrazolium reduction assay (MTT assay)[53]. The MTT reagent was dissolved at 0.5 mg ml^−1 in medium without phenol red and was used to replace cell culture supernatants containing the peptides (100 μl per well), and the samples were incubated for 4 h at 37 °C in a humidified atmosphere containing 5% CO2 yielding the insoluble formazan salt. The resulting salts were then resuspended in hydrochloric acid (0.04 mol l^−1) in anhydrous isopropanol and quantified by spectrophotometric measurements of absorbance at 570 nm. All assays were done as three biological replicates.
Unless otherwise stated, all assays were performed in three independent biological replicates as indicated in each figure legend and Methods sections. The cytotoxic activities values were estimated using non-linear regression based on the range of concentrations screened and were shown as the values that cause lysis of 50% of the cells in the experiment. Two technical replicates were performed in the cytotoxicity assays within each of the three biological replicates.

[4] = tested on: 11 clinically relevant bacterial pathogens; format: cell-based; conditions: Supplementary Dataset 2; against the 11 pathogens tested
Description: as §1, §2

[5] = tested on: E. coli AIC221; format: cell-based, Escherichia coli; conditions: AIC221, 20 h
Description: as §1, §2

[6] = tested on: K. pneumoniae ATCC 13883; format: cell-based, Klebsiella pneumoniae; conditions: ATCC 13883, 20 h
Description: as §1, §2

[7] = tested on: S. aureus ATCC BAA-1556 (methicillin-resistant strain); format: cell-based, Staphylococcus aureus; conditions: ATCC BAA-1556, 20 h
Description: as §1, §2

[8] = tested on: E. coli ATCC 11775; format: cell-based, Escherichia coli; conditions: ATCC 11775, 20 h
Description: as §1, §2

Compound | Minimal inhibitory concentration, A. baumannii ATCC19606 [1] | Minimal inhibitory concentration, E. faecium ATCC700221-VRE [2] | CC50 [3] | Active or Inactive [4] | Minimal inhibitory concentration, E. coli AIC221 [5] | Minimal inhibitory concentration, K. pneumoniae ATCC133883 [6] | Minimal inhibitory concentration, S. aureus ATCC BAA-1556-MRSA [7] | TI (therapeutic index) [3] | Minimal inhibitory concentration, E. coli ATCC11775 [8]
CC[C@H](C)[C@H](NC(=O)[C@H](CCCCN)NC(=O)[C@@H](NC(=O)[C@H](Cc1c[nH]c2ccccc12)NC(=O)[C@@H](N)CCCCN)[C@@H](C)O)C(=O)N[C@@H](Cc1ccc(O)cc1)C(=O)N[C@@H](CC(C)C)C(=O)N1CCC[C@H]1C(=O)N[C@@H](CC(C)C)C(=O)N[C@@H](CC(C)C)C(=O)N[C@@H](CC(C)C)C(=O)N1CCC[C@H]1C(=O)N[C@@H](CC(C)C)C(=O)O [Bisonin-2] (H-KWTKIYLPLLLPL-OH; N-terminus and C-terminus assumed) | 8 µM (≈ 12.8 µg/mL) | 8 µM (≈ 12.8 µg/mL) | > 128 µM | Active | – | – | – | – | –
CC[C@H](C)[C@H](NC(=O)[C@@H](NC(=O)[C@H](Cc1c[nH]c2ccccc12)NC(=O)[C@H](CCCCN)NC(=O)[C@@H](N)CCCCN)C(C)C)C(=O)N[C@@H](CCCCN)C(=O)N[C@@H](CO)C(=O)N[C@H](C(=O)N[C@H](C(=O)N[C@@H](Cc1ccccc1)C(=O)N[C@@H](Cc1ccccc1)C(=O)N[C@@H](CCCCN)C(=O)O)C(C)C)C(C)C [Hesperelin-2] (H-KKWVIKSVVFFK-OH; N-terminus and C-terminus assumed) | 16 µM (≈ 24.1 µg/mL) | 8 µM (≈ 12.1 µg/mL) | > 128 µM | Active | 8 µM (≈ 12.1 µg/mL) | 32 µM (≈ 48.3 µg/mL) | 16 µM (≈ 24.1 µg/mL) | – | –
CC[C@H](C)[C@H](NC(=O)[C@H](Cc1ccccc1)NC(=O)[C@H](CC(N)=O)NC(=O)[C@@H](NC(=O)[C@@H](NC(=O)[C@H](Cc1c[nH]cn1)NC(=O)[C@@H](N)CC(C)C)[C@@H](C)O)[C@@H](C)CC)C(=O)N[C@H](C(=O)N[C@@H](CCCCN)C(=O)N[C@@H](CO)C(=O)N[C@@H](CC(C)C)C(=O)N[C@@H](CC(C)C)C(=O)N[C@@H](CC(C)C)C(=O)O)[C@@H](C)CC [Bisonin-1] (H-LHTINFIIKSLLL-OH; N-terminus and C-terminus assumed) | – | 16 µM (≈ 24.4 µg/mL) | > 128 µM | Active | – | – | – | > 8 | –
CC[C@H](C)[C@H](N)C(=O)N[C@@H](CO)C(=O)N[C@@H](CC(C)C)C(=O)N[C@@H](Cc1ccccc1)C(=O)N[C@H](C(=O)N[C@@H](CCCNC(=N)N)C(=O)N1CCC[C@H]1C(=O)N[C@@H](CC(C)C)C(=O)N[C@@H](C)C(=O)N[C@@H](CC(C)C)C(=O)NCC(=O)N[C@H](C(=O)N[C@@H](CCCNC(=N)N)C(=O)N[C@@H](CC(C)C)C(=O)O)C(C)C)[C@@H](C)CC [Psephotellin-1] (H-ISLFIRPLALGVRL-OH; N-terminus and C-terminus assumed) | 32 µM (≈ 50.2 µg/mL) | – | > 128 µM | Active | 16 µM (≈ 25.1 µg/mL) | 32 µM (≈ 50.2 µg/mL) | – | – | 16 µM (≈ 25.1 µg/mL)
CC[C@H](C)[C@H](NC(=O)[C@H](CC(C)C)NC(=O)[C@H](CCCNC(=N)N)NC(=O)[C@H](Cc1c[nH]c2ccccc12)NC(=O)[C@H](CC(C)C)NC(=O)[C@@H](NC(=O)[C@H](CCCNC(=N)N)NC(=O)[C@H](CCC(N)=O)NC(=O)[C@H](Cc1ccc(O)cc1)NC(=O)[C@H](CC(C)C)NC(=O)[C@@H](N)CCCCN)[C@@H](C)CC)C(=O)N[C@@H](CO)C(=O)N[C@@H](CCC(=O)O)C(=O)N[C@@H](CC(C)C)C(=O)O [Equusin-3] (H-KLYQRILWRLISEL-OH; N-terminus and C-terminus assumed) | – | 8 µM (≈ 14.6 µg/mL) | > 128 µM | Active | 4 µM (≈ 7.32 µg/mL) | – | – | – | 16 µM (≈ 29.3 µg/mL)
CC[C@H](C)[C@H](NC(=O)[C@H](CCCCN)NC(=O)[C@H](CO)NC(=O)[C@H](CC(N)=O)NC(=O)[C@H](Cc1ccccc1)NC(=O)[C@H](Cc1c[nH]cn1)NC(=O)[C@H](Cc1ccccc1)NC(=O)[C@@H](N)Cc1c[nH]c2ccccc12)C(=O)N[C@@H](CC(C)C)C(=O)N[C@@H](CC(C)C)C(=O)N[C@@H](CC(C)C)C(=O)N[C@H](C(=O)NCC(=O)N[C@@H](CC(C)C)C(=O)O)[C@@H](C)O [Mylodonin-1] (H-WFHFNSKILLLTGL-OH; N-terminus and C-terminus assumed) | – | 8 µM (≈ 13.5 µg/mL) | > 128 µM | Active | – | – | – | > 16 | –
CC[C@H](C)[C@H](NC(=O)[C@H](CCCCN)NC(=O)[C@@H](NC(=O)[C@H](Cc1c[nH]c2ccccc12)NC(=O)[C@H](CCCCN)NC(=O)[C@@H](N)CCCCN)[C@@H](C)O)C(=O)N[C@@H](Cc1ccc(O)cc1)C(=O)N[C@@H](CO)C(=O)N1CCC[C@H]1C(=O)N[C@@H](CC(C)C)C(=O)N[C@@H](CO)C(=O)N[C@@H](CC(C)C)C(=O)O [Smilodin-1] (H-KKWTKIYSPLSL-OH; N-terminus and C-terminus assumed) | – | – | > 128 µM | Active | – | 64 µM (≈ 93.7 µg/mL) | – | > 2 | –
CC[C@H](C)[C@H](NC(=O)[C@@H](NC(=O)[C@H](CCSC)NC(=O)[C@@H](N)Cc1c[nH]c2ccccc12)[C@@H](C)O)C(=O)N[C@@H](Cc1c[nH]cn1)C(=O)N[C@@H](C)C(=O)N[C@@H](CC(C)C)C(=O)N[C@@H](CCCCN)C(=O)N[C@@H](CC(C)C)C(=O)N[C@@H](CO)C(=O)N[C@@H](CC(C)C)C(=O)N[C@@H](CO)C(=O)N[C@@H](Cc1ccccc1)C(=O)N[C@@H](CCCCN)C(=O)N[C@@H](CC(C)C)C(=O)O [Mammutin-1] (H-WMTIHALKLSLSFKL-OH; N-terminus and C-terminus assumed) | – | 2 µM (≈ 3.58 µg/mL) | > 128 µM | Active | – | – | – | > 64 | –
CC[C@H](C)[C@H](NC(=O)[C@H](CCCCN)NC(=O)[C@H](CC(N)=O)NC(=O)[C@@H](NC(=O)[C@@H](NC(=O)[C@H](Cc1c[nH]c2ccccc12)NC(=O)[C@H](CC(C)C)NC(=O)[C@H](CCC(N)=O)NC(=O)[C@H](CC(C)C)NC(=O)[C@@H](NC(=O)[C@H](C)NC(=O)[C@H](CC(C)C)NC(=O)[C@@H](N)CCCNC(=N)N)[C@@H](C)O)[C@@H](C)O)[C@@H](C)CC)C(=O)N[C@H](C(=O)N[C@@H](CCCCN)C(=O)N[C@@H](CCC(N)=O)C(=O)N[C@@H](CC(C)C)C(=O)N[C@@H](CCSC)C(=O)N[C@H](C(=O)N1CCC[C@H]1C(=O)N[C@@H](CC(C)C)C(=O)N[C@@H](CC(N)=O)C(=O)N[C@@H](CCCCN)C(=O)N1CCC[C@H]1C(=O)NCC(=O)N[C@@H](Cc1c[nH]cn1)C(=O)N[C@@H](CCCCN)C(=O)O)[C@@H](C)CC)[C@@H](C)O [Ararin-2] (H-RLATLQLWTINKITKQLMIPLNKPGHK-OH; N-terminus and C-terminus assumed) | 16 µM (≈ 50.5 µg/mL) | – | > 128 µM | Active | – | – | – | – | –
CC[C@H](C)[C@H](NC(=O)[C@H](CCCCN)NC(=O)[C@H](CC(C)C)NC(=O)[C@@H](NC(=O)[C@@H](N)CCCCN)[C@@H](C)O)C(=O)N[C@H](C(=O)N[C@@H](CCCNC(=N)N)C(=O)N[C@@H](CC(C)C)C(=O)N[C@@H](CC(C)C)C(=O)N[C@@H](Cc1ccccc1)C(=O)O)[C@@H](C)CC [Mammuthusin-3] (H-KTLKIIRLLF-OH; N-terminus and C-terminus assumed) | 32 µM (≈ 39.8 µg/mL) | – | > 128 µM | Active | 16 µM (≈ 19.9 µg/mL) | – | – | – | –
